Source: patent US20230181678A1, “NOVEL ANTIBACTERIAL PEPTIDE OR PEPTIDE ANALOG AND USE THEREOF” (CAMP THERAPEUTICS INC., priority 2020, published 2023)

How the values were obtained:
Type in all cases: cell-based
[1] = test system: outer membrane of E. coli NDM-1; assay: Enzyme assay, outer membrane leakage (β-lactamase release, CENTA); conditions: peptide 0.63 or 1.30 uM, 37° C., 1 h; 200 μM CENTA
Method: (§1) It was observed, through an enzyme assay, whether the sensitizing peptide destroyed the outer and inner membranes of Gram-negative bacteria. In the presence of the sensitizing peptide, it was observed whether in a case where 1.5 mM ONPG was used together therewith, β-galactosidase was released from E. coli ATCC 25922 for the inner membrane, and whether in a case where 200 μM CENTA was used together therewith, β-lactamase was released from E. coli NDM-1 for the outer membrane.
Specifically, to determine leakage of the outer membrane, activity of the β-lactamase released from the outer membrane was evaluated. New Delhi metallo-β-lactamase-1 (NDm-1)-producing E. coli cells were washed three times with DPBS and suspended in the same buffer. The cells were diluted to an OD600 of 0.2 and treated with the peptide at a concentration of 0.63 or 1.30 uM at 37° C. for 1 h. After centrifugation, the supernatant was incubated with 200 μM CENTATM β-lactamase substrate at 37° C. for 1 hour. An optical density was obtained by measuring absorbance of a product of enzyme reaction at 405 nm using a microplate reader (Molecular Devices Co., Menlo Park, Calif.).
The results are illustrated in FIGS. 12A and 12B. The y-axis is absorbance measured at 405 nm, and higher absorbance is observed as a higher amount of β-lactamase is released due to destruction of the membrane.

[2] = test system: human red blood cells (hRBC); assay: Hemolysis assay; conditions: hRBCs, 37° C., 4 hours
Method: To identify toxicity of the peptides, human red blood cell (hRBC) hemolytic activity assay (hemolysis assay) was performed.
Specifically, percent hemolysis of human red blood cells (hRBC) was determined by comparing the cells incubated in 100% deionized water (DW) as a positive control and peptide-free PBS as a negative control. hRBCs were washed 3 times with PBS using centrifugation at 500 g for 5 min, and 5% (v/v) hematocrit was suspended in PBS buffer (Hyclone). The peptide was diluted using 2-fold serial dilution with PBS, and hRBCs were added at 2.5×10^8 cells to each well. The sample was incubated at 37° C. for 4 hours. After centrifugation at 1400 rpm for 5 minutes, 180 μL of the supernatant was transferred to a transparent flat-bottom 96-well plate. An amount of hemoglobin released by the peptide was determined by measuring absorbance at 405 nm using an EPOCH2 microplate reader (BioTek, Winooski, USA).
Hemolytic activity (%)=(absorbance of sample−absorbance of PBS)/(absorbance of 100% DW−A405 of PBS)×100

[3] = test system: inner membrane of E. coli ATCC 25922; assay: Enzyme assay, inner membrane leakage (β-galactosidase release, ONPG); conditions: 1.5 mM ONPG
Method: as §1
To determine leakage of the inner membrane, release of the cytoplasmic enzyme β-galactosidase was evaluated. The bacteria were diluted to OD600=1 and 1.5 mM ONPG (O-nitrophenyl-β-D-galactopyranoside) was added. Absorbance of a product of enzyme reaction was measured at 420 nm. The other procedures were carried out in the same manner as in the experiment for outer membrane destruction.

CC[C@H](C)[C@H](NC(=O)CN)C(=O)NCC(=O)N[C@@H](C)C(=O)N[C@H](C(=O)N[C@@H](CC(C)C)C(=O)N[C@@H](CCCCN)C(=O)N[C@H](C(=O)N[C@@H](CC(C)C)C(=O)N[C@H](C(=O)N[C@H](C(=O)NCC(=O)N[C@@H](CC(C)C)C(=O)N1CCC[C@H]1C(=O)N[C@@H](C)C(=O)N[C@@H](CC(C)C)C(=O)N[C@H](C(=O)N[C@@H](CO)C(=O)N[C@@H](Cc1c[nH]c2ccccc12)C(=O)N[C@H](C(=O)N[C@@H](CCCCN)C(=O)N[C@@H](CCCNC(=N)N)C(=O)N[C@@H](CCCCN)C(=O)N[C@@H](CCCNC(=N)N)C(=O)N[C@@H](CCC(N)=O)C(=O)N[C@@H](CCC(N)=O)C(N)=O)[C@@H](C)CC)[C@@H](C)CC)[C@@H](C)O)[C@@H](C)O)C(C)C)C(C)C [melittin, reference compound]
destruction of outer membrane (β-lactamase release) [1]: destroyed both the inner and outer membranes of bacteria
hemolytic activity [2]: exhibited hemolysis of hRBCs starting from low concentrations
destruction of inner membrane (β-galactosidase release) [3]: destroyed both the inner and outer membranes of bacteria
